For this assay, the system named is Plasmodium berghei. As to the kind of experiment: Luciferase/luciferin-expressing antifolate-resistant parasites were used to infect a culture of HepG2 cells that were pre-incubated with compounds. Infected hepatocytes emit light due to the luciferase reaction. Assay results are presented as the percent inhibition of light emission compared to control. […]. Type of assay: functional. Conditions: sporozoite; for IC90: read-out: LUCIFERASE INFECTION ASSAY - IC90.

[1] abbreviates: read-out: LUCIFERASE INFECTION ASSAY - IC50.

A value given as a limit tells only on which side of the number the result lay.

The IC50 is the concentration needed to halve the response being measured. A word on the IC90: it is the concentration at which the effect reaches the 90% level. As for `Cc1c(C(=O)O)cc(-c2ccccc2)n1CCNC(=O)OC(C)(C)C`, the IC90 was over 9.58 µM. The IC50 under setting [1] was over 9.58 µM.
For `c1ccc2c(CN3CCN(c4ncnc5sccc45)CC3)csc2c1`, the IC90 is over 10 µM. The half-maximal inhibitory concentration (IC50) (HEPG2TOX_HILL_SLOPE 3.07, HEPG2TOX_R_SQUARED 0.815, PBLUC_HILL_SLOPE 3.96, PBLUC_R_SQUARED 0.666, read-out: LUCIFERASE INFECTION ASSAY - IC50) was found to be 6.85 µM.
In the case of `COc1ccc(C(C)C)cc1-c1cc(N2CCCC2CO)n2nccc2n1` (configuration not stated), the IC90 is 6.95 µM. Moreover, the IC50 (HEPG2TOX_HILL_SLOPE 1.35, HEPG2TOX_R_SQUARED 0.737, PBLUC_HILL_SLOPE 1.83, PBLUC_R_SQUARED 0.512, read-out: LUCIFERASE INFECTION ASSAY - IC50) came to 2.09 µM.
For the molecule `CCOc1cccc(-c2cn3c(-c4ccc(Cl)cc4)cnc3cn2)c1`, the concentration for an effect of 90% (IC90) was over 9.43 µM. Also, under setting [1], the IC50 turned out to be 8.98 µM.
`CCOc1ccc(S(=O)(=O)Nc2cc3c4c(oc3c3ccccc23)CC(C)(C)CC4=O)cc1`: the IC90 is 6.15 µM. For the setting “HEPG2TOX_HILL_SLOPE 4.2, HEPG2TOX_R_SQUARED 0.972, PBLUC_HILL_SLOPE 5.12, PBLUC_R_SQUARED 0.622, read-out: LUCIFERASE INFECTION ASSAY - IC50”, the half-inhibitory concentration (IC50) was determined as 4.01 µM.
As for `COC(=O)c1cc(OC)c(OC)cc1NC(=O)c1ccccc1Br`, the IC90 is over 8.37 µM. Besides, under setting [1], the IC50 was over 8.37 µM.
`CN(C)c1ccc(-c2cc(Nc3cccc(OCc4ccccc4)c3)ncn2)cc1`: the IC90 was 1.61 µM. For the same molecule, the IC50 (HEPG2TOX_HILL_SLOPE 1.6, HEPG2TOX_R_SQUARED 0.897, PBLUC_HILL_SLOPE 1.97, PBLUC_R_SQUARED 0.838, read-out: LUCIFERASE INFECTION ASSAY - IC50) stood at 0.526 µM.
As for `COc1ccc(-c2cc(NC(=O)Cc3ccc(S(=O)(=O)N4CCCC4)s3)ccc2OC)cc1`, the IC90 came to 4.64 µM. Where the note is “FFLUC_HILL_SLOPE 14.7, FFLUC_R_SQUARED 0.565, HEPG2TOX_HILL_SLOPE 10.6, HEPG2TOX_R_SQUARED 0.932, PBLUC_HILL_SLOPE 12.2, PBLUC_R_SQUARED 0.78, read-out: LUCIFERASE INFECTION ASSAY - IC50”, the IC50 was 3.88 µM.
`Nc1ncnc(N/N=C/c2ccc(C3=CCCC3)s2)c1[N+](=O)[O-]`: the IC90 was over 10 µM. Moreover, the IC50 (FFLUC_HILL_SLOPE 0.804, FFLUC_R_SQUARED 0.918, PBLUC_HILL_SLOPE 0.696, PBLUC_R_SQUARED 0.659, read-out: LUCIFERASE INFECTION ASSAY - IC50) was 0.463 µM.
For `Cc1ccc(Nc2ccc(S(=O)(=O)NC3=NCCCCC3)cc2[N+](=O)[O-])cc1`, the 90% effect concentration (IC90) is over 10 µM. Further, where the note is “HEPG2TOX_HILL_SLOPE 0.294, HEPG2TOX_R_SQUARED 0.717, PBLUC_HILL_SLOPE 0.103, PBLUC_R_SQUARED 0.0204, read-out: LUCIFERASE INFECTION ASSAY - IC50”, the IC50 was over 10 µM.
Turning to `COc1ccc(Sc2nc(N(C)C)ncc2OC)cc1`, the IC90 is over 11.3 µM. Further, for the setting “HEPG2TOX_HILL_SLOPE 2.8, HEPG2TOX_R_SQUARED 0.967, PBLUC_HILL_SLOPE 2.43, PBLUC_R_SQUARED 0.609, read-out: LUCIFERASE INFECTION ASSAY - IC50”, the IC50 worked out at 6.22 µM.
With `Cc1cc(C)c(CSCCNC(=O)Nc2ccccc2)c(C)c1`, the IC90 is over 10 µM. For the same molecule, where the note is “PBLUC_HILL_SLOPE 3.02, PBLUC_R_SQUARED 0.314, read-out: LUCIFERASE INFECTION ASSAY - IC50”, the IC50 was found to be 4.91 µM.
Turning to `NS(=O)(=O)c1ccc(-n2ncc(Nc3ccc(F)cc3)c(Cl)c2=O)cc1`, the IC90 is over 10 µM. The IC50 (HEPG2TOX_HILL_SLOPE 0.263, HEPG2TOX_R_SQUARED 0.596, PBLUC_HILL_SLOPE 7.27, PBLUC_R_SQUARED 0.0377, read-out: LUCIFERASE INFECTION ASSAY - IC50) is over 10 µM.
As to `O=C1C=C(c2ccc(Cl)cc2)C(=O)N1Nc1ccc(Cl)cc1Cl`, the IC90 was over 8.98 µM. Further, the IC50 (FFLUC_HILL_SLOPE 15.4, FFLUC_R_SQUARED 0.324, HEPG2TOX_HILL_SLOPE 12.8, HEPG2TOX_R_SQUARED 0.543, PBLUC_HILL_SLOPE 10.1, PBLUC_R_SQUARED 0.012, read-out: LUCIFERASE INFECTION ASSAY - IC50) was determined as 8.35 µM.
`CCN(CC)c1ccc(NC(=O)c2c(-c3c(Cl)cccc3Cl)noc2C)c(N(CC)CC)n1`: the IC90 was over 6.73 µM. For the same molecule, the IC50 under setting [1] was over 6.73 µM.
For the molecule `Cc1onc(-c2ccccc2)c1C(=O)ON=C1C2CC3CC(C2)CC1C3`, the 90% effect concentration (IC90) was over 9.42 µM. The IC50 (PBLUC_HILL_SLOPE 14.9, PBLUC_R_SQUARED 0.433, read-out: LUCIFERASE INFECTION ASSAY - IC50) came out at 8.78 µM.
For `O=C(Nc1ccc(SC(F)(F)F)cc1)Nc1ccc(Oc2cccc(C(F)(F)F)c2)nc1`, the IC90 was found to be 0.806 µM. For the setting “HEPG2TOX_HILL_SLOPE 4.03, HEPG2TOX_R_SQUARED 0.946, PBLUC_HILL_SLOPE 9.59, PBLUC_R_SQUARED 0.631, read-out: LUCIFERASE INFECTION ASSAY - IC50”, the IC50 turned out to be 0.641 µM.
Consider `O=c1cc(N2CCCN(c3ccc(C(F)(F)F)cn3)CC2)nc2ccccn12`, for which the concentration for an effect of 90% (IC90) was over 10 µM. Further, the 50% inhibitory concentration (IC50) (PBLUC_HILL_SLOPE 2.47, PBLUC_R_SQUARED 0.397, read-out: LUCIFERASE INFECTION ASSAY - IC50) was 5.84 µM.
For the molecule `COc1cc(Cl)c(C)cc1-n1c(SC(C(C)=O)c2ccccc2)nc2ccccc2c1=O` (configuration not stated), the IC90 is over 10 µM. Moreover, where the note is “FFLUC_HILL_SLOPE 3.43, FFLUC_R_SQUARED 0.242, HEPG2TOX_HILL_SLOPE 4.83, HEPG2TOX_R_SQUARED 0.785, PBLUC_HILL_SLOPE 3.87, PBLUC_R_SQUARED 0.683, read-out: LUCIFERASE INFECTION ASSAY - IC50”, the IC50 turned out to be 6.65 µM.
Consider `C#CCSc1nnc(-c2ccc(C(C)(C)C)cc2)n1-c1cccc(C(F)(F)F)c1`, for which the IC90 was over 7.94 µM. For the same molecule, the half-maximal inhibitory concentration (IC50) under setting [1] was over 7.94 µM.
With `COc1cc(-c2cc(-c3ccccc3F)cnc2N)ccc1O`, the IC90 was determined as 4.23 µM. Moreover, for the setting “PBLUC_HILL_SLOPE 10.3, PBLUC_R_SQUARED 0.764, read-out: LUCIFERASE INFECTION ASSAY - IC50”, the IC50 is 3.41 µM.
In the case of `CN1C(=O)N(CCCc2ccncc2)C(=O)C12CCN(Cc1ccc(N3CCCC3)cc1)CC2`, the IC90 was found to be 2.98 µM. The IC50 (HEPG2TOX_HILL_SLOPE 1.82, HEPG2TOX_R_SQUARED 0.908, PBLUC_HILL_SLOPE 12.5, PBLUC_R_SQUARED 0.321, read-out: LUCIFERASE INFECTION ASSAY - IC50) is 2.5 µM.
In the case of `CN(C)c1ccccc1-c1cn2c(-c3cccc(O)c3)cnc2cn1`, the IC90 is over 9.99 µM. The IC50 under setting [1] is over 9.99 µM.
On to `OCc1ccc(-c2cnc3ccc(-c4ccc(F)cc4)nn23)cc1`, for which the 90% effect concentration (IC90) was determined as 5.21 µM. The 50% inhibitory concentration (IC50) (HEPG2TOX_HILL_SLOPE 1.97, HEPG2TOX_R_SQUARED 0.914, PBLUC_HILL_SLOPE 1.12, PBLUC_R_SQUARED 0.781, read-out: LUCIFERASE INFECTION ASSAY - IC50) was 0.738 µM.
For the molecule `Nc1nccnc1C(=O)Nc1nc2cc3c(cc2s1)OCCO3`, the IC90 worked out at 0.434 µM. Further, under “HEPG2TOX_HILL_SLOPE 1.04, HEPG2TOX_R_SQUARED 0.527, PBLUC_HILL_SLOPE 12.4, 0.362, PBLUC_R_SQUARED 0.835, 0.759, read-out: LUCIFERASE INFECTION ASSAY - IC50”, the IC50 was determined as 0.197 µM.
Consider `CSCCC(C(=O)Oc1c(Cl)cc(Cl)c2ccc(C)nc12)N1C(=O)c2ccccc2C1=O` (configuration not stated), for which the IC90 was over 10 µM. Moreover, the concentration for half-maximal inhibition (IC50) under setting [1] is over 10 µM.
For `O=[N+]([O-])c1c(N2CCOCC2)ccc2nsnc12`, the IC90 is over 12.4 µM. Also, the IC50 (HEPG2TOX_HILL_SLOPE 10.9, HEPG2TOX_R_SQUARED 0.296, read-out: LUCIFERASE INFECTION ASSAY - IC50) was over 12.4 µM.
As for `CCCNC(=O)CN1CCN(c2nc(-c3cccs3)nc3sc(C)c(C)c23)CC1`, the IC90 was over 10 µM. The half-inhibitory concentration (IC50) (PBLUC_HILL_SLOPE 12.5, PBLUC_R_SQUARED 0.18, read-out: LUCIFERASE INFECTION ASSAY - IC50) is 9.45 µM.
For the molecule `COCCn1c(C)cc(C(=O)CSc2nnc(C)s2)c1C`, the IC90 was over 10.1 µM. In addition, the IC50 (FFLUC_HILL_SLOPE 1.54, FFLUC_R_SQUARED 0.663, PBLUC_HILL_SLOPE 0.577, PBLUC_R_SQUARED 0.574, read-out: LUCIFERASE INFECTION ASSAY - IC50) is 0.418 µM.
Take `Cc1nn(CC(=O)Nc2cccc(C(F)(F)F)c2)c(C)c1Oc1ccccc1`: the IC90 is 8.01 µM. The IC50 under setting [1] came out at 3.94 µM.
Taken in the same sequence, the figures for `FC(F)(F)c1cccc(NC(=S)Nc2cccnc2N2CCC(C(F)(F)F)CC2)c1` were over 7.36 µM and over 7.36 µM.
The matching figures for `O=C1COc2ccc(-c3cs/c(=N\c4ccc(OC(F)F)cc4)n3Cc3ccco3)cc2N1`: over 10 µM and over 10 µM.
As to `COC(=O)C1=C(Nc2ccc(OC(=O)Nc3cccc(Cl)c3)cc2)CSC1`, the IC90 was over 8.15 µM. Moreover, the IC50 (FFLUC_HILL_SLOPE 18, FFLUC_R_SQUARED 0.412, read-out: LUCIFERASE INFECTION ASSAY - IC50) is over 8.15 µM.
As for `Fc1ccc(CNCC2(c3ccnc(-c4ccc(Cl)cc4)c3)CC2)cc1F`, the IC90 was over 10 µM. The IC50 under setting [1] is over 10 µM.
For `CCn1c2ccccc2c2cc(/C=C(\C#N)c3nnc(N4CCOCC4)n3-c3ccccc3)ccc21`, the IC90 was over 10 µM. For the same molecule, the IC50 under setting [1] was over 10 µM.
Regarding `Oc1ccc(Cl)cc1/C=N/Nc1cccc(C(F)(F)F)c1`, the IC90 was over 10.5 µM. In addition, under “HEPG2TOX_HILL_SLOPE 5.54, HEPG2TOX_R_SQUARED 0.477, read-out: LUCIFERASE INFECTION ASSAY - IC50”, the IC50 was over 10.5 µM.

Values taken from ChEMBL document CHEMBL4483862, “Open-source discovery of chemical leads for next-generation chemoprotective antimalarials” (2018).
